Experimental data reported in PMC8559926, “Design, synthesis and biological evaluation of N-oxide derivatives with potent in vivo antileishmanial activity” (PLoS ONE, 2021).
Values joined by “and” are separate entries in the source; they are usually repeats but may differ in a detail not shown here. Equal values may be shown once. Read-outs that look alike come from different tables or passages of the source.

Tests used:
[1] = biological target: T1, recombinant Leishmania cysteine protease LmCPB2.8ΔCTE (CPB) (Leishmania mexicana, UniProt P36400); test: Enzymatic inhibition of recombinant CPB (Z-FR-AMC substrate); type: biochemical
T1 construct: The ORF that codes for the Leishmania mexicana CPB, lacking the C terminal extension (CPB2.8ΔCTE); made in house; host or cells: Pichia pastoris X-33
T1 sequence (P36400 126-341, stated change not applied): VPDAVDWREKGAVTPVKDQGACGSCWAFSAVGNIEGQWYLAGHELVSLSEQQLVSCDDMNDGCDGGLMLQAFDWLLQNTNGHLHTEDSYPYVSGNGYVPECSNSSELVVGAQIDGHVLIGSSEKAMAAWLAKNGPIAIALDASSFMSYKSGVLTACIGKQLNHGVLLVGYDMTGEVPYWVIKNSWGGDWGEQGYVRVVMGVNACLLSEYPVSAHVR
Procedure: The concentration of the active recombinant CPB expressed in Pichia pastoris supernatant was determined by active site titration with N-(trans-Epoxysuccinyl)-L-leucine 4-guanidinobutylamide E-64 (CalBiochem) that was found 1 μM. The active enzyme represented about 80% of the total recombinant enzyme.
Compounds were dissolved in DMSO to a final concentration of 20 μM. The assays were performed in dark 96 well-plates, containing 200 μL of 100 mM sodium acetate buffer (pH 5.5), 200 mM NaCl, 0.01% Triton-X100, 2 nM enzyme, various concentrations of inhibitor, and 5 μM of the substrate Z-FR-AMC (Calbiochem). The final concentration of DMSO was 1% (v/v). The enzyme was pre-incubated at 30°C for 2 minutes before the inhibitor was added, waited 2 minutes and after this incubation, the reaction was started by the addition of the substrate, Z-FR-AMC. The fluorescence was monitored at 380 nm excitation and 460 nm emission filters for 2 minutes at 30°C in an Infinite 200 PRO microplate reader (Tecan, Männedorf, Switzerland). The residual activity was measured by the ratio between enzyme + substrate and enzyme + inhibitor + substrate. […] Results were expressed in mean ± standard deviation of two independent replicates using Bioestat Software.

[2] = tested on: L. infantum intracellular amastigotes; test: Anti-amastigote activity in infected murine peritoneal macrophages; type: cell-based; settings: Leishmania infantum, Peritoneal macrophage, read-out: EC50 - Effective Concentration that kills 50% of L. infantum amastigote forms
Procedure: (§1) The antileishmanial activity against L. infantum intracellular amastigotes, according to the following methodology. […] Were used infected macrophages as negative control and amphotericin B as the positive control.
(§2) After incubation, cells were fixed with methanol and Giemsa stained. The effective concentration to 50% amastigotes death (EC) was obtained by counting 100 macrophages in duplicate, in two independent experiments. The values were obtained by non-linear regression on Bioestat® software, and results were expressed in mean ± standard deviation.

[3] = as above; type: cell-based, L. infantum; settings: Swiss, mouse; CC50 macrophages / EC50 L. infantum amastigotes; read-out: SI - Selective Index (CC50/EC50)
Procedure: as §1, §2

[4] = Quantification of nitrite by the Griess reaction (NO release); settings: compounds at 10^-4 M, 5 mM of L-Cys (1:50), 1 h, 37°C
Procedure: The levels of nitrite resulting from the oxidation of NO in the aqueous medium were quantified through the Griess reaction after incubation with an excess of L-cysteine (1:50) according to previously published methods. The experiments were performed in triplicate and repeated three times on different days. […] The results were expressed as a percentage of nitrite (% NO2^−; mol/mol). Statistical analysis was carried out using ANOVA followed by Tukey’s Multiple Comparison Test at a significance level of p < 0.05.
The ability of all synthesized compounds (4a-x) and (14a-g) to release NO was evaluated by indirect determination of NO2^− production. The compounds at 10^−4 M were incubated for 1 h at 37°C in the presence of L-cysteine (1:50) and the produced NO2^− was determined through Griess reaction (Table 1).

Q: What does the source list for `Nc1cccc(C(=O)N/N=C/c2ccc3no[n+]([O-])c3c2)c1` [Compound 4r]?
A: IC50 [1]: 3.4 ± 0.1 µM; EC50 ([2]; 24 h): 9.5 ± 0.6 µM; selectivity ratio at 24 h [3]: 11

Q: Which IC50 [1] does the source give for `O=C(N/N=C/c1ccc2no[n+]([O-])c2c1)c1cccc(O)c1` [Compound 4u] here?
A: 11.7 ± 0.5 µM

Q: And the EC50 ([2]; 24 h)?
A: > 10 µM

Q: What does the source list for `Nc1ccc(C(=O)N/N=C/c2ccc3no[n+]([O-])c3c2)cc1` [Compound 4s]?
A: IC50 [1]: > 20 µM; EC50 ([2]; 24 h): > 10 µM

Q: With `O=C(N/N=C/c1ccc2no[n+]([O-])c2c1)c1ccccc1O` [Compound 4t] as the compound, how does the IC50 [1] read?
A: 4.2 ± 0.2 µM

Q: And the EC50 ([2]; 24 h)?
A: > 10 µM

Q: What does the source list for `CC(C)(C)c1ccc(C(=O)N/N=C/c2ccc(OCc3no[n+]([O-])c3C(N)=O)cc2)cc1` [Compound 4m, (E)-4-((4-((2-(4-(tert-butyl)benzoyl)hydrazono)methyl)phenoxy)methyl)-3-carbamoyl-1,2,5-oxadiazole 2-oxide]?
A: IC50 [1]: 6 ± 0.7 µM; % NO2- (mol/mol) [4]: 12.5 ± 1.3 %; EC50 ([2]; 24 h): 6.4 ± 1.1 µM; selectivity ratio at 24 h [3]: > 78

Q: With `O=C(N/N=C/c1ccc(O)cc1)c1ccc(O)cc1` [Compound 14d, (E)-4-hydroxy-N’-(4-hydroxybenzylidene)benzohydrazide] as the compound, how does the IC50 [1] read?
A: 2 ± 0.1 µM

Q: And the EC50 ([2]; 24 h)?
A: > 10 µM

Q: Which “% NO2- (mol/mol)” value [4] does the source give for `C[C@@H]1[C@H](O)[C@@H](C)/C=C/C=C/C=C/C=C/C=C/C=C/C=C/[C@H](O[C@@H]2O[C@H](C)[C@@H](O)[C@H](N)[C@@H]2O)C[C@@H]2O[C@](O)(C[C@@H](O)C[C@@H](O)[C@H](O)CC[C@@H](O)C[C@@H](O)CC(=O)O[C@H]1C)C[C@H](O)[C@H]2C(=O)O` [Amphotericin B, amphotericin B, reference compound] here?
A: 0%

Q: What about the EC50 ([2]; 24 h treatment, intracellular amastigotes) of the same compound?
A: 1 ± 0.1 µM

Q: And the selectivity ratio at 24 h [3]?
A: 12

Q: What does the source list for `O=C(N/N=C/c1ccc(Oc2no[n+]([O-])c2-c2ccccc2)cc1)c1ccccc1` [Compound 4a, (E)-4-(4-((2-benzoylhydrazono)methyl)phenoxy)-3-phenyl-1,2,5-oxadiazole 2-oxide]?
A: IC50 [1]: 1.5 ± 0.1 µM; % NO2- (mol/mol) [4]: 9.0 ± 0.7 %; EC50 ([2]; 24 h): 1.4 ± 0.1 µM; selectivity ratio at 24 h [3]: > 357

Q: For `CC(C)(C)c1ccc(C(=O)N/N=C/c2ccc3no[n+]([O-])c3c2)cc1` [Compound 4x], which IC50 ([1]; read-out: IC50 - Inhibition of CPB, 2 nM enzyme, 5 μM Z-FR-AMC, pH 5.5, 30°C) is on record?
A: > 20 µM

Q: And the EC50 ([2]; 24 h)?
A: > 10 µM

Q: For `NC(=O)c1c(COc2ccc(/C=N/NC(=O)c3ccc([N+](=O)[O-])cc3)cc2)no[n+]1[O-]` [Compound 4l, (E)-3-carbamoyl-4-((4-((2-(4-nitrobenzoyl)hydrazono)methyl)phenoxy)methyl)-1,2,5-oxadiazole 2-oxide], which IC50 [1] is on record?
A: 10.8 ± 2.3 µM

Q: What about the “% NO2- (mol/mol)” value [4] of the same compound?
A: 11.8 ± 1.1 %

Q: And the EC50 ([2]; 24 h)?
A: 7.7 ± 2.1 µM

Q: With `NC(=O)c1c(COc2ccc(/C=N/NC(=O)c3ccccc3)cc2)no[n+]1[O-]` [Compound 4h, (E)-4-((4-((2-benzoylhydrazono)methyl)phenoxy)methyl)-3-carbamoyl-1,2,5-oxadiazole 2-oxide] as the compound, how does the IC50 [1] read?
A: 8.8 ± 0.2 µM

Q: What about the “% NO2- (mol/mol)” value [4] of the same compound?
A: 12.1 ± 1.2 %

Q: What about the EC50 ([2]; 24 h) of the same compound?
A: 3.1 ± 0.2 µM

Q: And the selectivity ratio at 24 h [3]?
A: > 161

Q: With `Nc1ccccc1C(=O)N/N=C/c1ccc2no[n+]([O-])c2c1` [Compound 4q] as the compound, how does the IC50 [1] read?
A: 14 ± 2 µM

Q: What about the EC50 ([2]; 24 h) of the same compound?
A: > 10 µM

Q: For `O=[N+]([O-])O[C@H]1CO[C@H]2[C@@H]1OC[C@H]2O[N+](=O)[O-]` [DNS, isosorbide dinitrate, reference compound], which “% NO2- (mol/mol)” value [4] is on record?
A: 10.5% and 10.5 ± 0.9 ^*^a %

Q: Which IC50 [1] does the source give for `NC(=S)N/N=C/c1ccc(O)cc1` [Compound 14b, (E)-2-(4-hydroxybenzylidene)hydrazine-1-carbothioamide] here?
A: 11.7 ± 1 µM

Q: For `CC(C)(C)c1ccc(C(=O)N/N=C/c2ccc(O)cc2)cc1` [Compound 14g, (E)-4-(tert-butyl)-N’-(4-hydroxybenzylidene)benzohydrazide], which IC50 [1] is on record?
A: 7.6 ± 2.1 µM

Q: What about the EC50 ([2]; 24 h) of the same compound?
A: > 10 µM

Q: For `O=C(N/N=C/c1ccc2no[n+]([O-])c2c1)c1ccc(O)cc1` [Compound 4v], which IC50 [1] is on record?
A: > 20 µM

Q: And the EC50 ([2]; 24 h)?
A: > 10 µM

Q: What does the source list for `O=C(N/N=C/c1ccc2no[n+]([O-])c2c1)c1ccccc1` [Compound 4p]?
A: IC50 [1]: > 20 µM; EC50 ([2]; 24 h): > 10 µM
